Measurements reported in US20110136788A1, “THERAPEUTIC AGENT FOR IRRITABLE BOWEL SYNDROME” (priority 2008, published 2011).
Where two headings read alike, the source gives them in different places.

How the values were obtained:
[1] = system: restraint stress-induced bowel movement, male C57BL/6 mice; experiment: mouse restraint stress-induced bowel movement; type: in vivo; conditions: intraperitoneal; for suppression of restraint stress-induced bowel movement: 10 min before stress loading, excreted feces in 2 hr, FIG. 2
Procedure: Male C57BL/6 mice were used under non-fasting conditions. On the day of the test, the body weight was measured, and the mice were individually bred for 2 hr. Thereafter, the mice were placed in a mouse restraint stress cage, and the number of excreted feces in 2 hr was counted. The normal group was individually bred for 2 hr, and subsequently was bred under the same conditions, the number of excreted feces in 2 hr was counted. Each drug (same as in Example 1) was suspended in 0.5% methylcellulose, and intraperitoneally administered at a dose of 10 ml/kg 10 min before stress loading.

[2] = biological target: T1, rat TGR5 (Rattus norvegicus, UniProt Q80T02); experiment: cAMP production in CHO cell line expressing rat TGR5 (CHO-rTGR5); type: cell-based
T1 construct: expressed in transfected cells; host or cells: CHO cells
T1 sequence (Q80T02 1-329): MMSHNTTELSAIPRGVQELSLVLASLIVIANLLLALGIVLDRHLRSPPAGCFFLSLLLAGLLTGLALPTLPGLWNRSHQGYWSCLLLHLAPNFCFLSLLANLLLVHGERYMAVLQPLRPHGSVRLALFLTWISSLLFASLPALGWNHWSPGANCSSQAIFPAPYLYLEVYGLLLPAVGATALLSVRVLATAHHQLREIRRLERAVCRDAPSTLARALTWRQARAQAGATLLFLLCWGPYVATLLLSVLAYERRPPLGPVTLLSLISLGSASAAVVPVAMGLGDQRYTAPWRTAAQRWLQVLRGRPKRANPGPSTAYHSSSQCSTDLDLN
Procedure: [The procedure below names another species; the source lists this species under the same test.] (§1) CHO cell line expressing mouse TGR5 (CHO-mTGR5), which was prepared by a method known per se and using the mouse TGR5 expression vector, was suspended in an assay medium (Hanks' Balanced Salt Solution (Invitrogen) added with 0.2 mM isobutylmethylxanthine and 0.1% bovine albumin) at 1×10^7 cells/ml and stood at room temperature for 30 min. Then, a compound diluted with the assay medium to each concentration was added, and the mixture was stood still at room temperature for 30 min, and the cAMP amount was measured according to the protocol of ALPHA SCREEN cAMP ASSAY KIT (Perkin Elmer). […] The EC50 value was calculated by using GraphPad PRISM (GraphPad software) from the amount of cAMP produced by each compound.

[3] = system: rat ileum peristalsis motility; experiment: rat exo-vivo ileum peristalsis; conditions: isolated ileum of male SD rats, intraluminal pressure; FIG. 3
Procedure: Male SD rats were used under non-fasting conditions. On the day of the test, 4-5 cm of the ileum was isolated, and the oral side end and aboral side end were subjected to cannulation. 95% oxygen/5% carbon dioxide was passed therethrough and placed horizontally in a bath filled with a Krebs solution warmed to 37° C. A tube outflux on the aboral side was set at about 4 cm higher than the bath, 95% oxygen/5% carbon dioxide was passed from the tube on the oral side and perfused with a Krebs solution warmed to 37° C. at a flow rate of 10 cc/hr to induce peristalsis motility. Changes of the intraluminal pressure of the intestine due to the peristalsis motility of the ileum were recorded by a transducer from the tube on the oral side. A compound at various concentrations was added to the Krebs solution surrounding the ileum. When a compound at various concentrations was added, the Krebs solution was exchanged immediately before the addition.

[4] = biological target: T2, mouse TGR5 (Mus musculus, UniProt Q80SS6); experiment: cAMP production in CHO cell line expressing mouse TGR5 (CHO-mTGR5); type: cell-based
T2 construct: expressed in transfected cells; host or cells: CHO cells, expression vector pAKKO-111H
T2 sequence (Q80SS6 1-329): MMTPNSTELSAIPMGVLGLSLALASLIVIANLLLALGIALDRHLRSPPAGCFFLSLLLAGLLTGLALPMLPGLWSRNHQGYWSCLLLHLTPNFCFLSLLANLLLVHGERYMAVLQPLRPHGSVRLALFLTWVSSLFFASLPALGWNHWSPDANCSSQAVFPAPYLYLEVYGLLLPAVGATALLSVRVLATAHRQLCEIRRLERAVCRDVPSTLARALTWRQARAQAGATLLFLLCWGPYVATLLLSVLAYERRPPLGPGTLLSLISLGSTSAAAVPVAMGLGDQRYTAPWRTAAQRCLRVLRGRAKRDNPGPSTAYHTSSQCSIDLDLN
Procedure: as §1

[5] = biological target: T3, human TGR5 (Homo sapiens, UniProt Q8TDU6); experiment: cAMP production in CHO cell line expressing human TGR5 (CHO-hTGR5); type: cell-based
T3 construct: expressed in transfected cells; host or cells: CHO cells
T3 sequence (Q8TDU6 1-330): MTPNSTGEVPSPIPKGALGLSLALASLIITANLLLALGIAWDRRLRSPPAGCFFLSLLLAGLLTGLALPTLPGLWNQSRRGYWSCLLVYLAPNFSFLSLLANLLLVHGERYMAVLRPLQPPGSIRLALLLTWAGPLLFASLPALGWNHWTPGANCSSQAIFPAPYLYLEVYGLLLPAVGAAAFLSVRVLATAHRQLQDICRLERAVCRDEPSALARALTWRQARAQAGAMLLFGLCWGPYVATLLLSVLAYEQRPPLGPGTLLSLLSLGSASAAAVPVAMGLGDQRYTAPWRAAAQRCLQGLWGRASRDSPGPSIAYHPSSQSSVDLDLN
Procedure: [The procedure below names another species; the source lists this species under the same test.] as §1

[6] = system: stress-induced bowel movement; conditions: various animals, references 6-9; cited from earlier work
[7] = CHO-rTGR5, cAMP production, read-out: EC50 value
[8] = Table 8, rat TGR5, read-out: EC50 (M) Rat
[9] = CHO-hTGR5, cAMP production, read-out: EC50 value

Row | Compound | EC50 [2, 7] | EC50 [2, 8] | EC50 [4] | EC50 [5, 9] | EC50 ([5]; Table 8, human TGR5, read-out: EC50 (M) Human) | suppressive action on the restraint stress-induced bowel movement ([1]; dose 3 mg/kg) | suppressive action on the restraint stress-induced bowel movement ([1]; dose 10 mg/kg) | suppressive action on the restraint stress-induced bowel movement ([1]; dose 30 mg/kg) | suppression of restraint stress-induced bowel movement [1] | suppression of peristalsis motility of the ileum [3] | suppression of stress-induced bowel movement [6]
1 | CC(c1cc(C(F)(F)F)cc(C(F)(F)F)c1)N1CCOc2nccc(-c3ccccc3)c2C1.Cl (centres unmarked) [Compound D, 4-{1-[3,5-bis(trifluoromethyl)phenyl]ethyl}-6-phenyl-2,3,4,5-tetrahydropyrido[3,2-f][1,4]oxazepine hydrochloride] | 1.2e-07 M | 1.2e-07 M | 730 nM | 1.6e-09 M |  | statistically significant suppressive action | statistically significant suppressive action | statistically significant suppressive action | suppressed a restraint stress-induced bowel movement in a dose-dependent manner | suppressed the peristalsis motility of the ileum in a dose-dependent manner | 
2 | O=C1COc2nccc(-c3ccccc3F)c2CN1Cc1cc(C(F)(F)F)cc(C(F)(F)F)c1 [Compound A, 4-[3,5-bis(trifluoromethyl)benzyl]-6-(2-fluorophenyl)-4,5-dihydropyrido[3,2-f][1,4]oxazepin-3(2H)-one] |  |  |  |  |  |  |  | statistically significant suppressive action | suppressed a restraint stress-induced bowel movement in a dose-dependent manner | suppressed the peristalsis motility of the ileum in a dose-dependent manner | 
3 | CN1C(=O)C(C)(C)N(C(=O)COc2cccc3cnccc23)c2ccc(F)cc21 [Compound C, 7-fluoro-4-[(isoquinolin-5-yloxy)acetyl]-1,3,3-trimethyl-3,4-dihydroquinoxalin-2(1H)-one] | 9.9e-09 M | 9.9e-09 M | 25 nM | 2.1e-09 M |  |  | statistically significant suppressive action | statistically significant suppressive action | suppressed a restraint stress-induced bowel movement in a dose-dependent manner |  | 
4 | Cc1[nH]cnc1CN1CCc2c(c3ccccc3n2C)C1=O [Alosetron] |  |  |  |  |  |  |  |  |  |  | suppress stress-induced bowel movement

More lines, main results first:

Row | EC50 [2, 7] | EC50 [2, 8] | EC50 [4] | EC50 [5, 9] | EC50 ([5]; Table 8, human TGR5, read-out: EC50 (M) Human) | Compound | suppressive action on the restraint stress-induced bowel movement ([1]; dose 3 mg/kg) | suppressive action on the restraint stress-induced bowel movement ([1]; dose 10 mg/kg) | suppressive action on the restraint stress-induced bowel movement ([1]; dose 30 mg/kg) | suppression of restraint stress-induced bowel movement [1] | suppression of peristalsis motility of the ileum [3] | suppression of stress-induced bowel movement [6]
5 | 3.2e-07 M |  |  | 2.4e-07 M | 2.4e-07 M | O=C1COc2nccc(-c3ccccc3O)c2CN1Cc1cc(C(F)(F)F)cc(C(F)(F)F)c1 [Compound E, 4-[3,5-bis(trifluoromethyl)benzyl]-6-(2-hydroxyphenyl)-4,5-dihydropyrido[3,2-f][1,4]oxazepin-3(2H)-one] |  |  |  |  | suppressed the peristalsis motility of the ileum in a dose-dependent manner | 
6 | 2.4e-09 M |  | 25 nM | 6.2e-10 M |  | CC(c1cc(C(F)(F)F)cc(C(F)(F)F)c1)N1Cc2c(-c3ccccc3F)ccnc2OCC1=O (centres unmarked) [Compound B, 4-{1-[3,5-bis(trifluoromethyl)phenyl]ethyl}-6-(2-fluorophenyl)-4,5-dihydropyrido[3,2-f][1,4]oxazepin-3(2H)-one] |  |  | statistically significant suppressive action | suppressed a restraint stress-induced bowel movement in a dose-dependent manner |  | 
